In patent publication US20230183237A1, “COMPETITIVE AND NONCOMPETITIVE INHIBITORS OF THE MUSCARINIC ACETYLCHOLINE RECEPTOR M5” (Vanderbilt University, priority 2020, published 2023) one finds IC50 data, which are given here for 24 compounds.

Bounds are passed on as bounds.

The target in the assay is T1, hM5 (Homo sapiens, UniProt P08912).
T1 construct: expressed in transfected cells
T1 sequence (P08912 1-532): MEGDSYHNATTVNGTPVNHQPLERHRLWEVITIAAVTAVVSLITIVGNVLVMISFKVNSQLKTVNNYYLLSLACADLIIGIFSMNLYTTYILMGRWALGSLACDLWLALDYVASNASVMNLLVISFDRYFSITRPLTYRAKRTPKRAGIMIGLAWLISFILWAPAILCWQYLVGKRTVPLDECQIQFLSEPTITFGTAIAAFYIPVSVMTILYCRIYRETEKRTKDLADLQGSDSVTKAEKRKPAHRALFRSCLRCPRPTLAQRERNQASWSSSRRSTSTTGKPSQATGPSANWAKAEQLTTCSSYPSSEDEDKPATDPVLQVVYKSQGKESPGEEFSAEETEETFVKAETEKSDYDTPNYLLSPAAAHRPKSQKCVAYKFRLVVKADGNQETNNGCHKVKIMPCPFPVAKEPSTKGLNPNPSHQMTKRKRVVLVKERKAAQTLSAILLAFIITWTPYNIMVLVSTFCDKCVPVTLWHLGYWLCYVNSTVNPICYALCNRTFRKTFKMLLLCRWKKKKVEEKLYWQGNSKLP
The assay is described as follows: Calcium mobilization concentration-response (IC50 vs EC80 acetylcholine), CHO hM5. It counts as cell-based. The following applies: CELL LINE hM5; calcium mobilization, EC80 acetylcholine addition; read-out: IC50. An outline of the steps:
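CHO cells stably expressing hM5, dye-loaded, in HBSS/20 mM HEPES/2.5 mM probenecid, pH 7.4. Compounds were pre-incubated 140 s before an EC80 acetylcholine challenge, with calcium flux read kinetically.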
On the technique in general: Calcium flux is commonly read through the fluorescence of an indicator in the cells.

Take `Cc1cc2ncnn2cc1C1CCN(S(=O)(=O)c2cn(C(F)F)nc2C)CC1` [Compound 144, 6-(1-((1-(difluoromethyl)-3-methyl-1H-pyrazol-4-yl)sulfonyl)piperidin-4-yl)-7-methyl-[1,2,4]triazolo[1,5-a]pyridine]: the IC50 was 1200 nM. For the compound `Cc1cc(S(=O)(=O)N2CCC(c3cn4ncnc4cc3C)CC2)c(C)s1` [Compound 145, 6-(1-((2,5-dimethylthiophen-3-yl)sulfonyl)piperidin-4-yl)-7-methyl-[1,2,4]triazolo[1,5-a]pyridine], the IC50 stood at 989 nM. As for `Cc1cc2ncnn2cc1C1CCN(S(=O)(=O)c2cc(C(F)(F)F)nn2C)CC1` [Compound 146, 7-methyl-6-(1-((1-methyl-3-(trifluoromethyl)-1H-pyrazol-5-yl)sulfonyl)piperidin-4-yl)-[1,2,4]triazolo[1,5-a]pyridine], the IC50 is greater than 10000 nM.

As to `C=Cc1cc2ncnn2cc1C1=CCN(S(=O)(=O)c2cnn(C)c2C)CC1` [Compound 147, 6-(1-((1,5-dimethyl-1H-pyrazol-4-yl)sulfonyl)-1,2,3,6-tetrahydropyridin-4-yl)-7-vinyl-[1,2,4]triazolo[1,5-a]pyridine], the IC50 was 51 nM.

As to `Cc1c(S(=O)(=O)N2CC=C(c3cn4ncnc4cc3C3CC3)CC2)cnn1C` [Compound 148, 7-cyclopropyl-6-(1-((1,5-dimethyl-1H-pyrazol-4-yl)sulfonyl)-1,2,3,6-tetrahydropyridin-4-yl)-[1,2,4]triazolo[1,5-a]pyridine], the 50% inhibitory concentration (IC50) was 786 nM. Consider `Cc1cc2ncnn2cc1C1CCN(S(=O)(=O)c2c3ccccc3nn2C)CC1` [Compound 150, 7-methyl-6-(1-((2-methyl-2H-indazol-3-yl)sulfonyl)piperidin-4-yl)-[1,2,4]triazolo[1,5-a]pyridine], for which the 50% inhibitory concentration (IC50) is 325 nM.

As to `Cc1cc2ncnn2cc1C1CCN(S(=O)(=O)c2cnn(C(F)F)c2C)CC1` [Compound 151, 6-(1-((1-(difluoromethyl)-5-methyl-1H-pyrazol-4-yl)sulfonyl)piperidin-4-yl)-7-methyl-[1,2,4]triazolo[1,5-a]pyridine], the half-inhibitory concentration (IC50) stood at 62 nM. Next, `Cc1cc2ncnn2cc1C1CCN(S(=O)(=O)c2cccc3c2OCCO3)CC1` [Compound 152, 6-(1-((2,3-dihydrobenzo[b]dioxin-5-yl)sulfonyl)piperidin-4-yl)-7-methyl-[1,2,4]triazolo[1,5-a]pyridine]: 117 nM. On to `Cc1cc2ncnn2cc1C1CCN(S(=O)(=O)c2ccc(F)cc2)CC1` [Compound 153, 6-(1-((4-fluorophenyl)sulfonyl)piperidin-4-yl)-7-methyl-[1,2,4]triazolo[1,5-a]pyridine], for which the IC50 worked out at 4100 nM. For the compound `Cc1cc2ncnn2cc1C1CCN(S(=O)(=O)c2c[nH]cn2)CC1` [Compound 155, 6-(1-((1H-imidazol-4-yl)sulfonyl)piperidin-4-yl)-7-methyl-[1,2,4]triazolo[1,5-a]pyridine], the IC50 is greater than 10000 nM. Next, `Cc1cc2ncnn2cc1C1CCN(S(=O)(=O)c2cnn(C)c2C(F)F)CC1` [Compound 156, 6-(1-((5-(difluoromethyl)-1-methyl-1H-pyrazol-4-yl)sulfonyl)piperidin-4-yl)-7-methyl-[1,2,4]triazolo[1,5-a]pyridine]: 9.1 nM. As for `Cc1cc2ncnn2cc1C1CCN(S(=O)(=O)c2c(C)n[nH]c2C)CC1` [Compound 157, 6-(1-((3,5-dimethyl-1H-pyrazol-4-yl)sulfonyl)piperidin-4-yl)-7-methyl-[1,2,4]triazolo[1,5-a]pyridine], the IC50 came to 2900 nM. `Cc1c(S(=O)(=O)N2CCC(c3cn4ncnc4cc3F)CC2)cnn1C` [Compound 161, 6-(1-((1,5-dimethyl-1H-pyrazol-4-yl)sulfonyl)piperidin-4-yl)-7-fluoro-[1,2,4]triazolo[1,5-a]pyridine]: the IC50 came out at 125 nM.

`Cc1cc2ncnn2cc1C1CCN(S(=O)(=O)c2cnn(C)c2C(F)(F)F)CC1` [Compound 162, 7-methyl-6-(1-((1-methyl-5-(trifluoromethyl)-1H-pyrazol-4-yl)sulfonyl)piperidin-4-yl)-[1,2,4]triazolo[1,5-a]pyridine]: the IC50 turned out to be 96 nM. On to `Cc1cc2ncnn2nc1C1CCN(S(=O)(=O)c2ccc3c(c2)CCO3)CC1` [Compound 164, 6-(1-((2,3-dihydrobenzofuran-5-yl)sulfonyl)piperidin-4-yl)-7-methyl-[1,2,4]triazolo[1,5-b]pyridazine], for which the IC50 turned out to be 5900 nM. Next, `Cc1cc2ncnn2nc1C1CCN(S(=O)(=O)c2cnn(C)c2C)CC1` [Compound 165, 6-(1-((1,5-dimethyl-1H-pyrazol-4-yl)sulfonyl)piperidin-4-yl)-7-methyl-[1,2,4]triazolo[1,5-b]pyridazine]: 60 nM; `Cc1cc2ncnn2nc1C1CCN(S(=O)(=O)c2ccc3c(c2)N(C)CCO3)CC1` [Compound 166, 4-methyl-6-((4-(7-methyl-[1,2,4]triazolo[1,5-b]pyridazin-6-yl)piperidin-1-yl)sulfonyl)-3,4-dihydro-2H-benzo[b][1,4]oxazine]: 1600 nM; `Cc1cc2ncnn2nc1C1=CCN(S(=O)(=O)c2ccc3c(c2)CCO3)CC1` [Compound 167, 6-(1-((2,3-dihydrobenzofuran-5-yl)sulfonyl)-1,2,3,6-tetrahydropyridin-4-yl)-7-methyl-[1,2,4]triazolo[1,5-b]pyridazine]: greater than 10000 nM. On to `Cc1cc2ncnn2cc1C1CCN(S(=O)(=O)c2cccc3nonc23)CC1` [Compound 168, 4-((4-(7-methyl-[1,2,4]triazolo[1,5-a]pyridin-6-yl)piperidin-1-yl)sulfonyl)benzo[c][1,2,5]oxadiazole], for which the IC50 was 821 nM. Next, `Cc1cc2ncnn2nc1C1=CCN(S(=O)(=O)c2cnn(C)c2C)CC1` [Compound 169, 6-(1-((1,5-dimethyl-1H-pyrazol-4-yl)sulfonyl)-1,2,3,6-tetrahydropyridin-4-yl)-7-methyl-[1,2,4]triazolo[1,5-b]pyridazine]: 974 nM; `Cc1cc2ncnn2nc1C1=CCN(S(=O)(=O)c2ccc3c(c2)N(C)CCO3)CC1` [Compound 170, 4-methyl-6-((4-(7-methyl-[1,2,4]triazolo[1,5-b]pyridazin-6-yl)-3,6-dihydropyridin-1(2H)-yl)sulfonyl)-3,4-dihydro-H-benzo[b][1,4]oxazine]: greater than 10000 nM; `Cc1cc2ncnn2cc1C1(F)CCN(S(=O)(=O)c2cnn(C)c2C)CC1` [Compound 173, 6-(1-((1,5-dimethyl-1H-pyrazol-4-yl)sulfonyl)-4-fluoropiperidin-4-yl)-7-methyl-[1,2,4]triazolo[1,5-a]pyridine]: 82 nM. Next, `Cc1cc2ncnn2cc1C1CCN(S(=O)(=O)c2ccc3c(cnn3C)c2)CC1` [Compound 175, 7-methyl-6-(1-((1-methyl-1H-indazol-5-yl)sulfonyl)piperidin-4-yl)-[1,2,4]triazoto[1,5-a]pyridine]: greater than 10000 nM. With `Cc1cc2ncnn2nc1C1CCN(S(=O)(=O)c2cnn(C(F)F)c2C)CC1` [Compound 176, 6-(1-((1-(difluoromethyl)-5-methyl-1H-pyrazol-4-yl)sulfonyl)piperidin-4-yl)-7-methyl-[1,2,4]triazolo[1,5-b]pyridazine], the IC50 is greater than 10000 nM.

As a reminder, the IC50 is the concentration that gives 50% inhibition.
